# Reference: patent US20190315806A1, “POLYMYXIN DERIVATIVE, PREPARATION METHOD AND APPLICATION THEREOF” (priority 2016, published 2019)
# Where a SMILES comes first, the peptide text is derived from it. Bridges are numbered along the chain shown (N, C = ends). [ ]: non-standard residue; d: D form. The star is where a group is joined. dPhe(4-CF3) = N[C@H](Cc1ccc(C(F)(F)F)cc1)C(=O)O; dPhe(4-Cl) = N[C@H](Cc1ccc(Cl)cc1)C(=O)O; dPhe(2-Cl) = N[C@H](Cc1ccccc1Cl)C(=O)O; Heptanoyl(6-Me) = CC(C)CCCCC(=O)*; X2 = CC[C@H](C)CCCCC(=O)*; dDab = NCC[C@@H](N)C(=O)O; Octanoyl = CCCCCCCC(=O)*; Dab = NCC[C@H](N)C(=O)O; X9 = CCCCCCC(=O)CC(=O)*; X6 = CCCC(=O)CC(=O)*
# Experiments:
# Format in all cases: cell-based
# [1] = tested on: Klebsiella pneumoniae ATCC BAA-2146 (NDM-1); test: Antibacterial activity, MIC by dish double dilution method; details: ATCC BAA-2146
# Protocol: (§1) The minimum inhibitory concentration (MIC) was determined by means of dish double dilution method using a Multipoint inoculator according to the CLSI recommended method. The compounds of the present invention (for example, the compounds prepared in the Embodiments) and the reference substances were diluted twice each time with the broth into various desired concentrations, and appropriate amounts were added to the dishes. Agar medium is melted, and then quantitatively injected into the dish containing the drug solution, and mixed. The final concentrations of the compounds of the invention (e.g., the compounds prepared in the Embodiments) and the controls were 0.03, 0.06, 0.125, 0.25 . . . 128 μg/mL, respectively. The test bacteria were cultured overnight with nutrient broth, brain heart infusion or HTM broth. During the tests, the bacterial solutions were diluted appropriately, and the test bacteria (inoculation amount 10^4 CFU/dot) were inoculated on the surface of the drug-containing agar by a multi-point inoculator. After drying, the bacterial was incubated for 18 to 24 hours at 35° C., the results were observed, the minimum concentrations of the compounds of the present invention (for example, the compounds prepared in the Embodiments) and the controls contained in the dishes with no growth of colonies were MICs.
# (§2) The strains used in the antibacterial activity experiments were from the American Type Culture Collection (ATCC) and clinical isolates.
# (§3) The strains used for the experiments on antibacterial activity included Escherichia coli ATCC 25922, Klebsiella pneumoniae ATCC BAA-2146 (NDM-1), Pseudomonas aeruginosa ATCC 27853, Acinetobacter baumannii ATCC 19606 and Staphylococcus epidermidis ATCC 12228.
# (§4) Tested samples: polymyxin derivatives prepared according to the technical scheme of the present invention;
# (§5) Controls: polymyxin B sulfate and colistin (polymyxin E sulfate).
# [2] = tested on: Staphylococcus epidermidis ATCC 12228; details: ATCC 12228
# Protocol: as §1, §2, §3, §4, §5
# [3] = tested on: Acinetobacter baumannii ATCC 19606; details: ATCC 19606
# Protocol: as §1, §2, §3, §4, §5
# [4] = tested on: Pseudomonas aeruginosa ATCC 27853; details: ATCC 27853
# Protocol: as §1, §2, §3, §4, §5
# [5] = tested on: Escherichia coli ATCC 25922; details: ATCC 25922
# Protocol: as §1, §2, §3, §4, §5
SMILES,MIC K. pneumoniae ATCC BAA-2146 (NDM-1) [1] [µg/mL],MIC S. epidermidis ATCC 12228 [2] [µg/mL],MIC A. baumannii ATCC 19606 [3] [µg/mL],MIC P. aeruginosa ATCC 27853 [4] [µg/mL],MIC E. coli ATCC 25922 [5] [µg/mL]
"CCCCCCC(=O)CC(=O)N[C@@H](CCN)C(=O)N[C@H](C(=O)N[C@@H](CCN)C(=O)N[C@H]1CCNC(=O)[C@H]([C@@H](C)O)NC(=O)[C@H](CCN)NC(=O)[C@H](CCN)NC(=O)[C@H](CC(C)C)NC(=O)[C@@H](Cc2ccccc2)NC(=O)[C@H](CCN)NC1=O)[C@@H](C)O [Compound 6, 3-oxononanoyl-Dab-Thr-Dab-ring(4-10)[Dab-Dab-D-Phe-Lue-Dab-Dab-Thr]] (X9-[Dab]T[Dab][Dab][Dab][dF]L[Dab][Dab]T; lactam 4-C)",1,16,2,2,1
"CCCCCCCC(=O)N[C@@H](CCN)C(=O)N[C@H](C(=O)N[C@H](CO)C(=O)N[C@H]1CCNC(=O)[C@H]([C@@H](C)O)NC(=O)[C@H](CCN)NC(=O)[C@H](CCN)NC(=O)[C@H]([C@@H](C)O)NC(=O)[C@@H](CC(C)C)NC(=O)[C@H](CCN)NC1=O)[C@@H](C)O [Compound 60, octanoyl-Dab-Thr-D-Ser-ring(4-10)[Dab-Dab-D-Leu-Thr-Dab-Dab-Thr]] (Octanoyl-[Dab]T[dS][Dab][Dab][dL]T[Dab][Dab]T; lactam 4-C)",0.5,>128,0.06,2,0.12
"CCCCCCCC(=O)N[C@@H](CCN)C(=O)N[C@H](C(=O)N[C@@H](CCN)C(=O)N[C@H]1CCNC(=O)[C@H](CO)NC(=O)[C@H](CCN)NC(=O)[C@H](CCN)NC(=O)[C@H]([C@@H](C)O)NC(=O)[C@@H](CC(C)C)NC(=O)[C@H](CCN)NC1=O)[C@@H](C)O [Compound 109, octanoyl-Dab-Thr-Dab-ring(4-10)[Dab-Dab-D-Leu-Thr-Dab-Dab-Ser]] (Octanoyl-[Dab]T[Dab][Dab][Dab][dL]T[Dab][Dab]S; lactam 4-C)",2,>128,16,1,1
"CC[C@H](C)CCCCC(=O)N[C@@H](CCN)C(=O)N[C@H](C(=O)N[C@@H](CCN)C(=O)N[C@H]1CCNC(=O)[C@H]([C@@H](C)O)NC(=O)[C@H](CCN)NC(=O)[C@H](CCN)NC(=O)[C@H](CC(C)C)NC(=O)[C@@H](Cc2ccc(C(F)(F)F)cc2)NC(=O)[C@H](CCN)NC1=O)[C@@H](C)O [Compound 23, (S)-6-methyloctanoyl-Dab-Thr-Dab-ring(4-10)[Dab-Dab-D-Phe(4-CF3)-Lue-Dab-Dab-Thr]] (X2-[Dab]T[Dab][Dab][Dab][dPhe(4-CF3)]L[Dab][Dab]T; lactam 4-C)",2,8,1,2,1
"CC[C@H](C)CCCCC(=O)N[C@@H](CCN)C(=O)N[C@H](C(=O)N[C@@H](CCN)C(=O)N[C@H]1CCNC(=O)[C@H]([C@@H](C)O)NC(=O)[C@H](CCN)NC(=O)[C@H](CCN)NC(=O)[C@H](CC(C)C)NC(=O)[C@@H](Cc2ccc(Cl)cc2)NC(=O)[C@H](CCN)NC1=O)[C@@H](C)O [Compound 16, (S)-6-methyloctanoyl-Dab-Thr-Dab-ring(4-10)[Dab-Dab-D-Phe(4-Cl)-Lue-Dab-Dab-Thr]] (X2-[Dab]T[Dab][Dab][Dab][dPhe(4-Cl)]L[Dab][Dab]T; lactam 4-C)",2,16,1,2,1
"CCCCCCCC(=O)N[C@@H](CCN)C(=O)N[C@H](C(=O)N[C@@H](CCN)C(=O)N[C@H]1CCNC(=O)[C@H]([C@@H](C)O)NC(=O)[C@H](CCN)NC(=O)[C@H](CCN)NC(=O)[C@H]([C@@H](C)CC)NC(=O)[C@@H](CC(C)C)NC(=O)[C@H](CCN)NC1=O)[C@@H](C)O [Compound 79, octanoyl-Dab-Thr-Dab-ring(4-10)[Dab-Dab-D-Leu-Ile-Dab-Dab-Thr]] (Octanoyl-[Dab]T[Dab][Dab][Dab][dL]I[Dab][Dab]T; lactam 4-C)",1,>128,0.5,1,0.5
"CCCC(=O)CC(=O)N[C@@H](CCN)C(=O)N[C@H](C(=O)N[C@@H](CCN)C(=O)N[C@H]1CCNC(=O)[C@H]([C@@H](C)O)NC(=O)[C@H](CCN)NC(=O)[C@H](CCN)NC(=O)[C@H](CC(C)C)NC(=O)[C@@H](Cc2ccccc2)NC(=O)[C@H](CCN)NC1=O)[C@@H](C)O [Compound 3, 3-oxocaproyl-Dab-Thr-Dab-ring(4-10)[Dab-Dab-D-Phe-Lue-Dab-Dab-Thr]] (X6-[Dab]T[Dab][Dab][Dab][dF]L[Dab][Dab]T; lactam 4-C)",2,128,8,2,0.5
"CCCCCCCC(=O)N[C@@H](CCN)C(=O)N[C@H](C(=O)N[C@H](CCN)C(=O)N[C@H]1CCNC(=O)[C@H]([C@@H](C)O)NC(=O)[C@H](CCN)NC(=O)[C@H](CCN)NC(=O)[C@H]([C@@H](C)O)NC(=O)[C@@H](CC(C)C)NC(=O)[C@H](CCN)NC1=O)[C@@H](C)O [Compound 32, octanoyl-Dab-Thr-D-Dab-ring(4-10)[Dab-Dab-D-Leu-Thr-Dab-Dab-Thr]] (Octanoyl-[Dab]T[dDab][Dab][Dab][dL]T[Dab][Dab]T; lactam 4-C)",0.5,>128,0.5,1,0.5
"CCOc1ccc(C[C@H]2NC(=O)[C@H](CCN)NC(=O)[C@@H](NC(=O)[C@H](CCN)NC(=O)[C@@H](NC(=O)[C@H](CCN)NC(=O)CCCC[C@@H](C)CC)[C@@H](C)O)CCNC(=O)[C@H]([C@@H](C)O)NC(=O)[C@H](CCN)NC(=O)[C@H](CCN)NC(=O)[C@H](CC(C)C)NC2=O)cc1 [Compound 25, (S)-6-methyloctanoyl-Dab-Thr-Dab-ring(4-10)[Dab-Dab-D-Phe(4-OEt)-Lue-Dab-Dab-Thr]] (X2-[Dab]T[Dab][Dab][Dab][dY](Et)L[Dab][Dab]T; lactam 4-C)",2,16,2,2,1
"CC(C)CCCCC(=O)N[C@@H](CCN)C(=O)N[C@H](C(=O)N[C@H](CCN)C(=O)N[C@H]1CCNC(=O)[C@H]([C@@H](C)O)NC(=O)[C@H](CCN)NC(=O)[C@H](CCN)NC(=O)[C@H]([C@@H](C)O)NC(=O)[C@@H](Cc2ccccc2)NC(=O)[C@H](CCN)NC1=O)[C@@H](C)O [Compound 144, 6-methylheptanoyl-Dab-Thr-D-Dab-ring(4-10)[Dab-Dab-D-Phe-Thr-Dab-Dab-Thr]] ({Heptanoyl(6-Me)}-[Dab]T[dDab][Dab][Dab][dF]T[Dab][Dab]T; lactam 4-C)",1,>128,1,1,0.5
"CC[C@H](C)CCCCC(=O)N[C@@H](CCN)C(=O)N[C@H](C(=O)N[C@@H](CCN)C(=O)N[C@H]1CCNC(=O)[C@H]([C@@H](C)O)NC(=O)[C@H](CCN)NC(=O)[C@H](CCN)NC(=O)[C@H](CC(C)C)NC(=O)[C@@H](Cc2ccc(O)cc2)NC(=O)[C@H](CCN)NC1=O)[C@@H](C)O [Compound 12, (S)-6-methyloctanoyl-Dab-Thr-Dab-ring(4-10)[Dab-Dab-D-Tyr-Lue-Dab-Dab-Thr]] (X2-[Dab]T[Dab][Dab][Dab][dY]L[Dab][Dab]T; lactam 4-C)",2,128,2,1,2
"CC[C@H](C)CCCCC(=O)N[C@@H](CCN)C(=O)N[C@H](C(=O)N[C@@H](CCN)C(=O)N[C@H]1CCNC(=O)[C@H]([C@@H](C)O)NC(=O)[C@H](CCN)NC(=O)[C@H](CCN)NC(=O)[C@H](CC(C)C)NC(=O)[C@@H](Cc2ccccc2Cl)NC(=O)[C@H](CCN)NC1=O)[C@@H](C)O [Compound 18, (S)-6-methyloctanoyl-Dab-Thr-Dab-ring(4-10)[Dab-Dab-D-Phe(2-Cl)-Lue-Dab-Dab-Thr]] (X2-[Dab]T[Dab][Dab][Dab][dPhe(2-Cl)]L[Dab][Dab]T; lactam 4-C)",2,4,0.5,2,1
